Results published in US20220056043A1, “NITROGEN-CONTAINING FUSED CYCLIC COMPOUND, PREPARATION METHOD THEREFOR AND USE THEREOF” (SICHUAN KELUN-BIOTECH BIOPHARMACEUTICAL CO., LTD., priority 2019, published 2022).
Where a name gives a salt, the structure may show the parent alone. Values belong to the compound of their own block, whether it stands above or below them.

Experiments:
hNLRP3 inflammasome = molecular target: T1, hNLRP3 inflammasome (Homo sapiens, UniProt Q96P20); assay: Agonistic effect on the expression of IL-1β in THP-1 cells after PMA-induced differentiation (HTRF); format: cell-based; settings: IL-1β level, PMA-differentiated THP-1 cells, 6 hours
T1 construct: endogenous in cells; host or cells: THP-1 cells, PMA-differentiated
Source text: Experimental Example 1: Agonistic Effect of the Compound of the Invention on the Expression of IL-1β in THP-1 Cells after PMA-Induced Differentiation
In this test, a HTRF (homogeneous time-resolved fluorescence) detection method was used to test the effect of the compound of the invention on the level of downstream cytokine IL-1β of NLRP3 to evaluate the agonistic effect of the compound on hNLRP3 inflammasome or hNLRP3 inflammasome pathway at a cellular level.
Reagent: RPMI 1640 (Hyclone); heat-inactivated FBS (fetal bovine serum) (Gibco); PMA (phorbol myristal acetate) (Beyotime)
Kit: IL-1β assay kit (CISIO)
1) THP-1 cells in a logarithmic growth phase were seeded in a T75 culture flask at a density of 5×10^5 cells/well, and cultured in a cell incubator at 37° C., 5% CO2 for 24 hours, and then 1 μM PMA was used to induce THP-1 suspension cells to become adherent macrophages. The medium was RPMI 1640 containing 10% heat-inactivated FBS and 0.05 mM β-mercaptoethanol.
2) The cells were induced and cultured for 24 hours. Then the adherent cells were trypsinized and centrifuged at 1000 rpm for 5 min. The supernatant was removed, and the cells were resuspended to a density of 2×10^6 cells/mL in RPMI 1640 medium containing 2% heat-inactivated FBS. 50 μL/well of cell resuspension was taken and spread on a 96-well plate such that the number of cells in each well was 1×10^5.
3) An appropriate amount of 10 mM DMSO solution of the compound to be tested was taken and diluted to a concentration of 2× test concentration with RPMI 1640 medium containing 2% heat-inactivated FBS. 50 μL/well of the dilution was added to the cells in the 96-well plate, and mixed well. The plate was placed in a cell incubator at 37° C., 5% CO2 for 6 hours. The supernatant was collected, and the level of IL-1β was measured in accordance with the instructions of the IL-1β detection kit.
4) EC50 was fitted by the GraphPad software log(agonist) vs. response—Variable slope four-parameter method.

[1] = system: CT26 mouse colon cancer subcutaneously transplanted tumor; assay: In vivo efficacy on bilaterally inoculated CT26 mouse colon cancer subcutaneously transplanted tumor; settings: for tumor volume (mm^3) day 0 / tumor volume (mm^3) day 14: twice a week for two weeks; for tumor volume (mm^3) day 0: day 0 (grouping); for tumor volume (mm^3) day 14 / TGI (%): day 14
Protocol: Experimental Example 7: In Vivo Efficacy of the Compounds of the Invention on Bilaterally Inoculated CT26 Mouse Colon Cancer Subcutaneously Transplanted Tumor
1) CT26 mouse colon cancer cells were cultured in a monolayer in vitro. When the cells were in a logarithmic growth phase, the cells were collected by centrifugation and counted.
2) 0.1 ml of PBS resuspension containing 3×10^5 CT26 cells was inoculated subcutaneously in the bilateral shoulder blades of mice respectively. When the bilateral scapular tumors of the mice grew to a volume of about 100 mm^3, the mice were randomly divided into 4 groups according to the bilateral tumor volumes, 8 mice in each group.
3) Compound 115s was injected into the tumor at the right scapular tumor of mice at 10 μg/time, 50 μg/time, and 250 μg/time, respectively, twice a week for two consecutive weeks. The bilateral tumor volumes and the body weight of the animals were measured.
4) Tumor inhibition rate, TGI (%), was calculated based on the tumor volumes to evaluate the inhibitory effect of Compound 115s on the growth of transplanted tumors in the mice. The calculation formula was: TGI (%)=100%−(TVt−TV0)/(CVt−CV0)×100%. When the tumor was regressing, the calculation formula was: TGI (%)=100%−(TVt−TV0)/TV0×100%, wherein TV0 was the average tumor volume of the tested compound group at the time of grouping; TVt was the average tumor volume of the tested compound group at the time of measurement on the t^th day; CV0 was the average tumor volume of the vehicle group at the time of grouping; and CVt was the average tumor volume of the vehicle group at the time of measurement on the t^th day. For statistical analysis of differences between the two groups, student's t-test was used to calculate the P value.

[2] = administration side, 10 μg/time intratumoral
[3] = administration side, 50 μg/time intratumoral
[4] = administration side, 250 μg/time intratumoral
[5] = non-administration side, 10 μg/time intratumoral (other side)
[6] = non-administration side, 50 μg/time intratumoral (other side)
[7] = non-administration side, 250 μg/time intratumoral (other side)

T1 sequence (Q96P20 whole entry): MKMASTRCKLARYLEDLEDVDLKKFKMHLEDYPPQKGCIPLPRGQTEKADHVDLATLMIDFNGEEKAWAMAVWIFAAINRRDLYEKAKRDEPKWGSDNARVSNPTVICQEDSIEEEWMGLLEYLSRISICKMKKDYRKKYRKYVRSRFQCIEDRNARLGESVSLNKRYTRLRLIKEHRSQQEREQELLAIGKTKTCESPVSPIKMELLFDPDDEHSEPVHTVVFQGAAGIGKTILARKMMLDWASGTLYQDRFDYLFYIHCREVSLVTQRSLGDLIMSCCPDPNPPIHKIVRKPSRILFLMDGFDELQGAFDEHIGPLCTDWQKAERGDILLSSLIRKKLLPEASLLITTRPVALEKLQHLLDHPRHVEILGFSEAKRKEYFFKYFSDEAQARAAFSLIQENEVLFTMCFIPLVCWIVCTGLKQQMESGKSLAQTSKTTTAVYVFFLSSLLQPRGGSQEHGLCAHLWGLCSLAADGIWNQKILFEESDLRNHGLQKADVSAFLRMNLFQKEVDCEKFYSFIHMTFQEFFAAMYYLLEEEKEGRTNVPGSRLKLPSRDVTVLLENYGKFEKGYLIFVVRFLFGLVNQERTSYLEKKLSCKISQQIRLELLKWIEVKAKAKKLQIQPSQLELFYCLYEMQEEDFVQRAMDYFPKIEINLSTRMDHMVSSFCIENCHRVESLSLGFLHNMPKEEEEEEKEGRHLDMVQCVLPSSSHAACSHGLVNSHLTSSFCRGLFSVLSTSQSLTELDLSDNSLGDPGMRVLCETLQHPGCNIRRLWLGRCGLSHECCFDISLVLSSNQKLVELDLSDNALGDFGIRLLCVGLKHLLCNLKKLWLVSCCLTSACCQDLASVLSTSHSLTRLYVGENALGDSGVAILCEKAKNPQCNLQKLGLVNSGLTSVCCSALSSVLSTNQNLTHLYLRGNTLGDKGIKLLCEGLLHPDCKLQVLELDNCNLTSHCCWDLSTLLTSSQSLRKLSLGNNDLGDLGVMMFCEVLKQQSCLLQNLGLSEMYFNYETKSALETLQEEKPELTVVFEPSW

SMILES: COCCNc1cc(N)nc2cc(-c3ccn[nH]3)sc12 [Compound 100s, N^7-(2-methoxyethyl)-2-(1H-pyrazol-5-yl)thieno[3,2-b]pyridine-5,7-diamine hydrochloride]
- EC50 (hNLRP3 inflammasome): 0.01 µM

SMILES: Nc1cc(NC2CCCC2)c2sc(-c3ccn[nH]3)cc2n1 [Compound 110s, N^7-cyclopentyl-2-(1H-pyrazol-5-yl)thieno[3,2-b]pyridine-5,7-diamine hydrochloride]
- EC50 (hNLRP3 inflammasome): 0.03 µM

SMILES: CC(C)(CO)CNc1cc(N)nc2cc(-c3ccn[nH]3)sc12.Cl [Compound 115s, 3-((5-amino-2-(1H-pyrazol-5-yl)thieno[3,2-b]pyridin-7-yl)amino)-2,2-dimethyl-1-propanol hydrochloride]
- tumor volume (mm^3) day 0 [1, 2]: 74.63 ± 6.26 mm^3
- tumor volume (mm^3) day 14 [1, 2]: 499.05 ± 211.28 mm^3
- TGI (%) [1, 2]: 77.46%
- tumor volume (mm^3) day 0 [1, 3]: 74.03 ± 4.69 mm^3
- tumor volume (mm^3) day 14 [1, 3]: 61.66 ± 41.15 mm^3
- TGI (%) [1, 3]: 144.99%
- tumor volume (mm^3) day 0 [1, 4]: 74.00 ± 4.41 mm^3
- tumor volume (mm^3) day 14 [1, 4]: 0.00 ± 0.00 mm^3
- TGI (%) [1, 4]: 200.00%
- tumor inhibitory effect on the non-administration side tumors ([1]; intratumoral injection at the other side, in words): significant dose-dependent tumor inhibitory effect
- anti-tumor effect on the subcutaneous tumor at the administration side ([1]; intratumoral injection, compared with the vehicle group, in words): significant dose-dependent anti-tumor effect
- tumor inhibitory effect on bilateral CT26 subcutaneous tumors ([1]; intratumoral injection, summary in words): significant dose-dependent tumor inhibitory effect
- tumor volume (mm^3) day 0 [1, 5]: 85.21 ± 7.40 mm^3
- tumor volume (mm^3) day 14 [1, 5]: 1269.99 ± 140.11 mm^3
- TGI (%) ([1]; non-administration side, 10 μg/time): 38.94%
- tumor volume (mm^3) day 0 [1, 6]: 85.31 ± 6.01 mm^3
- tumor volume (mm^3) day 14 [1, 6]: 869.87 ± 99.95 mm^3
- TGI (%) ([1]; non-administration side, 50 μg/time): 59.57%
- tumor volume (mm^3) day 0 [1, 7]: 85.17 ± 6.28 mm^3
- tumor volume (mm^3) day 14 [1, 7]: 462.85 ± 52.91 mm^3
- TGI (%) ([1]; non-administration side, 250 μg/time): 80.54%

Results, then the compound that gave them:

- EC50 (hNLRP3 inflammasome): 0.01 µM
SMILES: CCC(CC)Nc1cc(N)nc2cc(-c3ccn[nH]3)sc12 [Compound 113s, N^7-(pent-3-yl)-2-(1H-pyrazol-5-yl)thieno[3,2-b]pyridine-5,7-diamine hydrochloride]

- EC50 (hNLRP3 inflammasome): 0.05 µM
SMILES: Nc1cc(NCC(F)F)c2sc(-c3ccn[nH]3)cc2n1 [Compound 116s, N^7-(2,2-difluoroethyl)-2-(1H-pyrazol-5-yl)thieno[3,2-b]pyridine-5,7-diamine hydrochloride]

- EC50 (hNLRP3 inflammasome): 0.03 µM
SMILES: Nc1cc(NCC2CCOCC2)c2sc(-c3ccn[nH]3)cc2n1 [Compound 120s, 2-(1H-pyrazol-5-yl)-N^7-((tetrahydro-2H-pyran-4-yl)methyl)thieno[3,2-b]pyridine-5,7-diamine hydrochloride]
